# Test results reported in patent US20110130397A1, “PYRROLINONE COMPOUNDS AS INHIBITORS OF BACTERIAL PEPTIDYL TRNA HYDROLASE AND USES THEREOF” (priority 2006, published 2011).
# Where “and” joins values, the source holds several entries; their conditions need not be identical. Equal entries are not always repeated.
row,melting point,Structure (SMILES)
1,310 to 311 °C,O=C(C1=C(O)C(=O)N(c2nc3ccc(Cl)cc3s2)C1c1ccc(F)cc1)c1nccs1 (stereo not drawn) [Compound 436]
2,298 to 299 °C,O=C(C1=C(O)C(=O)N(c2nc3ccc(F)cc3s2)C1c1ccccc1F)c1nccs1 (stereo not drawn) [Compound 437]
3,320 to 321 °C,O=C(C1=C(O)C(=O)N(c2nc3ccc(F)cc3s2)C1c1ccc(F)cc1)c1nccs1 (stereo not drawn) [Compound 438]
4,320 to 321 °C,O=C(C1=C(O)C(=O)N(c2nc3c(Cl)cccc3s2)C1c1ccccc1F)c1nccs1 (stereo not drawn) [Compound 439]
5,303 to 304 °C,O=C(C1=C(O)C(=O)N(c2nc3c(Cl)cccc3s2)C1c1ccc(F)cc1)c1nccs1 (stereo not drawn) [Compound 440]
6,253 to 254 °C,COCC(=O)C1=C(O)C(=O)N(c2nc3ccc(Cl)cc3s2)C1c1ccccc1F (stereo not drawn) [Compound 441]
7,263 to 264 °C,COCC(=O)C1=C(O)C(=O)N(c2nc3ccc(Cl)cc3s2)C1c1ccc(F)cc1 (stereo not drawn) [Compound 442]
8,228 to 229 °C,COCC(=O)C1=C(O)C(=O)N(c2nc3ccc(F)cc3s2)C1c1ccccc1F (stereo not drawn) [Compound 443]
9,249 to 250 °C,COCC(=O)C1=C(O)C(=O)N(c2nc3ccc(F)cc3s2)C1c1ccc(F)cc1 (stereo not drawn) [Compound 444]
10,231 to 233 °C,COCC(=O)C1=C(O)C(=O)N(c2nc3c(Cl)cccc3s2)C1c1ccccc1F (stereo not drawn) [Compound 445]
11,218 to 219 °C,O=C(COc1ccccc1)C1=C(O)C(=O)N(c2nc3ccc(Cl)cc3s2)C1c1ccccc1F (stereo not drawn) [Compound 446]
12,203 to 204 °C,O=C(COc1ccccc1)C1=C(O)C(=O)N(c2nc3ccc(Cl)cc3s2)C1c1ccc(F)cc1 (stereo not drawn) [Compound 447]
13,197 to 198 °C,O=C(COc1ccccc1)C1=C(O)C(=O)N(c2nc3ccc(F)cc3s2)C1c1ccccc1F (stereo not drawn) [Compound 448]
14,131 to 133 °C,O=C(COc1ccccc1)C1=C(O)C(=O)N(c2nc3c(Cl)cccc3s2)C1c1ccccc1F (stereo not drawn) [Compound 449]
15,204 to 206 °C,O=C(COc1ccccc1)C1=C(O)C(=O)N(c2nc3c(Cl)cccc3s2)C1c1ccc(F)cc1 (stereo not drawn) [Compound 450]
16,246 to 247 °C,O=C(C1=C(O)C(=O)N(c2nc3ccc(Cl)cc3s2)C1c1ccccc1F)C1CC1 (stereo not drawn) [Compound 451]
17,229 to 230 °C,O=C(C1=C(O)C(=O)N(c2nc3ccc(Cl)cc3s2)C1c1ccc(F)cc1)C1CC1 (stereo not drawn) [Compound 452]
18,245 to 246 °C,O=C(C1=C(O)C(=O)N(c2nc3ccc(Cl)cc3s2)C1c1ccc(Cl)cc1)C1CC1 (stereo not drawn) [Compound 453]
19,234 to 235 °C,O=C(C1=C(O)C(=O)N(c2nc3ccc(F)cc3s2)C1c1ccccc1F)C1CC1 (stereo not drawn) [Compound 454]
20,221 to 223 °C,O=C(C1=C(O)C(=O)N(c2nc3ccc(F)cc3s2)C1c1ccc(F)cc1)C1CC1 (stereo not drawn) [Compound 455]
21,253 to 254 °C,O=C(C1=C(O)C(=O)N(c2nc3c(Cl)cccc3s2)C1c1ccccc1F)C1CC1 (stereo not drawn) [Compound 456]
22,218 to 219 °C,O=C(C1=C(O)C(=O)N(c2nc3c(Cl)cccc3s2)C1c1ccc(F)cc1)C1CC1 (stereo not drawn) [Compound 457]

row,melting point,Structure (SMILES)
1,196 to 197 °C,O=C(COc1ccccc1Cl)C1=C(O)C(=O)N(c2nc3ccc(Cl)cc3s2)C1c1ccc(F)cc1 (stereo not drawn) [Compound 458]
2,234 to 235 °C,O=C(COc1ccccc1Cl)C1=C(O)C(=O)N(c2nc3ccc(F)cc3s2)C1c1ccc(F)cc1 (stereo not drawn) [Compound 459]
3,143 to 145 °C,O=C(COc1ccccc1Cl)C1=C(O)C(=O)N(c2nc3c(Cl)cccc3s2)C1c1ccc(F)cc1 (stereo not drawn) [Compound 460]
4,235 to 236 °C,"Cc1ccc(C(=O)C2=C(O)C(=O)N(c3nc4ccc(Cl)cc4s3)C2c2ccc(F)c(F)c2)o1 (stereo not drawn) [Compound 461, 1-(6-Chlorobenzo[d]thiazol-2-yl)-5-(3,4-difluorophenyl)-3-hydroxy-4-(5-methylfuran-2-carbonyl)-1H-pyrrol-2(5H)-one]"
5,223 to 224 °C,Cc1ccc(C(=O)C2=C(O)C(=O)N(c3nc4ccc(F)cc4s3)C2c2ccc(F)c(F)c2)o1 (stereo not drawn) [Compound 462]
6,269 to 270 °C,Cc1ccc(C(=O)C2=C(O)C(=O)N(c3nc4c(Cl)cccc4s3)C2c2ccc(F)c(F)c2)o1 (stereo not drawn) [Compound 463]
7,244 to 245 °C,Cc1ccc(C(=O)C2=C(O)C(=O)N(c3nc4ccc(Cl)cc4s3)C2c2ccc(-c3ccccc3)cc2)o1 (stereo not drawn) [Compound 464]
8,228 to 231 °C,Cc1ccc(C(=O)C2=C(O)C(=O)N(c3nc4ccc(F)cc4s3)C2c2ccc(-c3ccccc3)cc2)o1 (stereo not drawn) [Compound 465]
9,222 to 223 °C,Cc1ccc(C(=O)C2=C(O)C(=O)N(c3nc4c(Cl)cccc4s3)C2c2ccc(-c3ccccc3)cc2)o1 (stereo not drawn) [Compound 466]
10,238 to 239 °C,Cc1ccc(C(=O)C2=C(O)C(=O)N(c3nc4ccc(Cl)cc4s3)C2c2ccc(Oc3ccccc3)cc2)o1 (stereo not drawn) [Compound 467]
11,172 to 173 °C,Cc1ccc(C(=O)C2=C(O)C(=O)N(c3nc4ccc(F)cc4s3)C2c2ccc(Oc3ccccc3)cc2)o1 (stereo not drawn) [Compound 468]
12,208 to 209 °C,Cc1ccc(C(=O)C2=C(O)C(=O)N(c3nc4c(Cl)cccc4s3)C2c2ccc(Oc3ccccc3)cc2)o1 (stereo not drawn) [Compound 469]
13,196 to 197 °C,Cc1ccc(C(=O)C2=C(O)C(=O)N(c3nc4ccc(Cl)cc4s3)C2c2ccc(OCc3ccccc3)cc2)o1 (stereo not drawn) [Compound 470]
14,191 to 193 °C,Cc1ccc(C(=O)C2=C(O)C(=O)N(c3nc4ccc(F)cc4s3)C2c2ccc(OCc3ccccc3)cc2)o1 (stereo not drawn) [Compound 471]
15,240 to 241 °C,Cc1ccc(C(=O)C2=C(O)C(=O)N(c3nc4c(Cl)cccc4s3)C2c2ccc(OCc3ccccc3)cc2)o1 (stereo not drawn) [Compound 472]
16,226 to 227 °C,Cc1ccc(C(=O)C2=C(O)C(=O)N(c3nc4ccc(Cl)cc4s3)C2c2cccc(Oc3ccccc3)c2)o1 (stereo not drawn) [Compound 473]
17,215 to 216 °C and 213 to 214 °C,Cc1ccc(C(=O)C2=C(O)C(=O)N(c3nc4ccc(Cl)cc4s3)C2c2cccc(OCc3ccccc3)c2)o1 (stereo not drawn) [Compound 475]
18,187 to 188 °C,Cc1ccc(C(=O)C2=C(O)C(=O)N(c3nc4ccc(F)cc4s3)C2c2cccc(OCc3ccccc3)c2)o1 (stereo not drawn) [Compound 476]
19,209 to 210 °C,Cc1ccc(C(=O)C2=C(O)C(=O)N(c3nc4ccc(Cl)cc4s3)C2c2ccc(OCCO)cc2)o1 (stereo not drawn) [Compound 477]
20,134 to 135 °C,Cc1ccc(C(=O)C2=C(O)C(=O)N(c3nc4ccc(F)cc4s3)C2c2ccc(OCCO)cc2)o1 (stereo not drawn) [Compound 478]
21,211 to 213 °C,Cc1ccc(C(=O)C2=C(O)C(=O)N(c3nc4ccc(Cl)cc4s3)C2c2ccc(OCCCN(C)C)cc2)o1 (stereo not drawn) [Compound 479]
22,209 to 211 °C,Cc1ccc(C(=O)C2=C(O)C(=O)N(c3nc4ccc(F)cc4s3)C2c2ccc(OCCCN(C)C)cc2)o1 (stereo not drawn) [Compound 480]

row,melting point,Structure (SMILES)
1,186 to 188 °C,COc1ccccc1CC(=O)C1=C(O)C(=O)N(c2nc3ccc(Cl)cc3s2)C1c1ccccc1F (stereo not drawn) [Compound 481]
2,207 to 208 °C,COc1ccccc1CC(=O)C1=C(O)C(=O)N(c2nc3ccc(F)cc3s2)C1c1ccccc1F (stereo not drawn) [Compound 482]
3,224 to 226 °C,COc1ccccc1CC(=O)C1=C(O)C(=O)N(c2nc3c(Cl)cccc3s2)C1c1ccccc1F (stereo not drawn) [Compound 483]
4,253 to 255 °C,COc1ccccc1CC(=O)C1=C(O)C(=O)N(c2nc3ccc(Cl)cc3s2)C1c1ccc(F)cc1 (stereo not drawn) [Compound 484]
5,223 to 224 °C,COc1ccccc1CC(=O)C1=C(O)C(=O)N(c2nc3ccc(F)cc3s2)C1c1ccc(F)cc1 (stereo not drawn) [Compound 485]
6,243 to 245 °C,COc1ccccc1CC(=O)C1=C(O)C(=O)N(c2nc3c(Cl)cccc3s2)C1c1ccc(F)cc1 (stereo not drawn) [Compound 486]
7,247 to 248 °C,COc1ccccc1CC(=O)C1=C(O)C(=O)N(c2nc3ccc(Cl)cc3s2)C1c1ccc(Cl)cc1 (stereo not drawn) [Compound 487]
8,249 to 250 °C,COc1ccccc1CC(=O)C1=C(O)C(=O)N(c2nc3ccc(F)cc3s2)C1c1ccc(Cl)cc1 (stereo not drawn) [Compound 488]
9,176 to 178 °C,COc1ccccc1CC(=O)C1=C(O)C(=O)N(c2nc3c(Cl)cccc3s2)C1c1ccc(Cl)cc1 (stereo not drawn) [Compound 489]
10,146 to 148 °C,Cc1ccc(C(=O)C2=C(O)C(=O)N(CCCN(CCCNC(=O)OC(C)(C)C)C(=O)OC(C)(C)C)C2c2ccc(F)cc2)o1 (stereo not drawn) [Compound 490]
11,126 to 128 °C,Cc1ccc(C(=O)C2=C(O)C(=O)N(CCCNCCCN)C2c2ccc(F)cc2)o1 (stereo not drawn) [Compound 491]
12,206 to 207 °C,CCOC(=O)CCC(=O)C1=C(O)C(=O)N(c2nc3ccc(Cl)cc3s2)C1c1ccccc1F (stereo not drawn) [Compound 493]
13,224 to 225 °C,CCOC(=O)CCC(=O)C1=C(O)C(=O)N(c2nc3ccc(Cl)cc3s2)C1c1ccc(F)cc1 (stereo not drawn) [Compound 494]
14,244 to 245 °C,CCOC(=O)CCC(=O)C1=C(O)C(=O)N(c2nc3ccc(Cl)cc3s2)C1c1ccc(Cl)cc1 (stereo not drawn) [Compound 495]
15,184 to 185 °C,CCOC(=O)CCC(=O)C1=C(O)C(=O)N(c2nc3ccc(F)cc3s2)C1c1ccccc1F (stereo not drawn) [Compound 496]
16,201 to 202 °C,CCOC(=O)CCC(=O)C1=C(O)C(=O)N(c2nc3ccc(F)cc3s2)C1c1ccc(F)cc1 (stereo not drawn) [Compound 497]
17,219 to 220 °C,CCOC(=O)CCC(=O)C1=C(O)C(=O)N(c2nc3ccc(F)cc3s2)C1c1ccc(Cl)cc1 (stereo not drawn) [Compound 498]
18,180 to 182 °C,CCOC(=O)CCC(=O)C1=C(O)C(=O)N(c2nc3c(Cl)cccc3s2)C1c1ccccc1F (stereo not drawn) [Compound 499]
19,178 to 179 °C,CCOC(=O)CCC(=O)C1=C(O)C(=O)N(c2nc3c(Cl)cccc3s2)C1c1ccc(F)cc1 (stereo not drawn) [Compound 500]
20,215 to 216 °C,CCOC(=O)CCC(=O)C1=C(O)C(=O)N(c2nc3c(Cl)cccc3s2)C1c1ccc(Cl)cc1 (stereo not drawn) [Compound 501]
21,177 to 178 °C,Cc1ccc(C(=O)C2=C(O)C(=O)N(Cc3ccco3)C2c2ccccc2F)o1 (stereo not drawn) [Compound 502]
22,213 to 214 °C,Cc1ccc(C(=O)C2=C(O)C(=O)N(Cc3ccco3)C2c2ccc(F)cc2)o1 (stereo not drawn) [Compound 503]
